In patent publication US20230278972A1, “SUBSTITUTED HALOALKYL SULFONANILIDE HERBICIDES” (FMC Corporation, priority 2020, published 2023):

Key:
Type in all cases: in vivo
[1] = tested on: Ryegrass, Italian (Italian ryegrass, Lolium multiflorum); assay: Test A postemergence, Ryegrass, Italian; settings: Postemergence, 0 to 100 scale (0 no effect, 100 complete control); for Plant response rating, Ryegrass, Italian: 125 g ai/ha; for Ryegrass, Italian plant response rating: 500 g ai/ha, visual injury vs untreated controls after approx. 10 days
Outline: (§1)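 Compounds in non-phytotoxic solvent with surfactant. Soil: loam/sand. Preemergence via directed soil spray after seeding; postemergence on seedlings 2–10 cm, one- to two-leaf.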

[2] = tested on: barnyardgrass (Echinochloa crus-galli); assay: Test A preemergence, barnyardgrass; settings: Preemergence, 0 to 100 scale (0 no effect, 100 complete control)
Outline: as §1

[3] = tested on: ragweed (common ragweed, Ambrosia artemisiifolia); assay: Test A preemergence, ragweed; settings: Preemergence, 0 to 100 scale (0 no effect, 100 complete control)
Outline: as §1

[4] = tested on: pigweed (Amaranthus retroflexus); assay: Test A postemergence, pigweed; settings: Postemergence, 0 to 100 scale (0 no effect, 100 complete control); for Plant response rating, Pigweed: 125 g ai/ha; for Pigweed plant response rating: 500 g ai/ha, visual injury vs untreated controls after approx. 10 days
Outline: as §1

[5] = tested on: Foxtail, Giant (giant foxtail, Setaria faberi); assay: Test A preemergence, Foxtail, Giant; settings: Preemergence, 0 to 100 scale (0 no effect, 100 complete control)
Outline: as §1

[6] = tested on: kochia (Bassia scoparia); assay: Test A postemergence, kochia; settings: Postemergence, 0 to 100 scale (0 no effect, 100 complete control); for Plant response rating, Kochia: 125 g ai/ha; for Kochia plant response rating: 500 g ai/ha, visual injury vs untreated controls after approx. 10 days
Outline: as §1

[7] = tested on: ragweed (common ragweed, Ambrosia artemisiifolia); assay: Test A postemergence, ragweed; settings: Postemergence, 0 to 100 scale (0 no effect, 100 complete control); for Plant response rating, Ragweed: 125 g ai/ha; for Ragweed plant response rating: 500 g ai/ha, visual injury vs untreated controls after approx. 10 days
Outline: as §1

[8] = tested on: blackgrass (Alopecurus myosuroides); assay: Test A postemergence, blackgrass; settings: Postemergence, 0 to 100 scale (0 no effect, 100 complete control); for Plant response rating, Blackgrass: 125 g ai/ha; for Blackgrass plant response rating: 500 g ai/ha, visual injury vs untreated controls after approx. 10 days
Outline: as §1

[9] = tested on: corn (Zea mays); assay: Test A postemergence, corn; settings: Postemergence, 0 to 100 scale (0 no effect, 100 complete control); for Plant response rating, Corn: 125 g ai/ha; for Corn plant response rating: 500 g ai/ha, visual injury vs untreated controls after approx. 10 days
Outline: as §1

[10] = tested on: Foxtail, Giant (giant foxtail, Setaria faberi); assay: Test A postemergence, Foxtail, Giant; settings: Postemergence, 0 to 100 scale (0 no effect, 100 complete control); for Plant response rating, Foxtail, Giant: 125 g ai/ha; for Foxtail, Giant plant response rating: 500 g ai/ha, visual injury vs untreated controls after approx. 10 days
Outline: as §1

[11] = tested on: kochia (Bassia scoparia); assay: Test A preemergence, kochia; settings: Preemergence, 0 to 100 scale (0 no effect, 100 complete control)
Outline: as §1

[12] = tested on: Ryegrass, Italian (Italian ryegrass, Lolium multiflorum); assay: Test A preemergence, Ryegrass, Italian; settings: Preemergence, 0 to 100 scale (0 no effect, 100 complete control)
Outline: as §1

[13] = tested on: wheat (Triticum aestivum); assay: Test A postemergence, wheat; settings: Postemergence, 0 to 100 scale (0 no effect, 100 complete control); for Plant response rating, Wheat: 125 g ai/ha; for Wheat plant response rating: 500 g ai/ha, visual injury vs untreated controls after approx. 10 days
Outline: (§2)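 After sowing into a sand-amended loam, pots for the preemergence test were treated by spraying directly onto soil. In parallel, seedlings at the one- to two-leaf stage and 2 to 10 cm tall were treated postemergence with the identical surfactant-containing formulation.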

[14] = tested on: barnyardgrass (Echinochloa crus-galli); assay: Test A postemergence, barnyardgrass; settings: Postemergence, 0 to 100 scale (0 no effect, 100 complete control); for Plant response rating, Barnyardgrass: 125 g ai/ha; for Barnyardgrass plant response rating: 500 g ai/ha, visual injury vs untreated controls after approx. 10 days
Outline: as §2

[15] = tested on: pigweed (Amaranthus retroflexus); assay: Test A preemergence, pigweed; settings: 0 to 100 scale (0 no effect, 100 complete control)
Outline: as §2

[16] = tested on: galium (catchweed bedstraw, Galium aparine); assay: Test A postemergence, galium; settings: Postemergence, 0 to 100 scale (0 no effect, 100 complete control); for Plant response rating, Galium: 125 g ai/ha; for Galium plant response rating: 500 g ai/ha, visual injury vs untreated controls after approx. 10 days
Outline: as §2

[17] = 125 g ai/ha, visual injury, approx. 10 days

SMILES | Plant response rating, Ryegrass, Italian [1] | Ryegrass, Italian plant response rating [1] | Plant response rating, Barnyardgrass ([2]; 500 g ai/ha) | Plant response rating, Ragweed [3, 17] | Plant response rating, Ragweed ([3]; 500 g ai/ha) | Plant response rating, Pigweed [4] | Pigweed plant response rating [4] | Plant response rating, Foxtail, Giant [5, 17] | Plant response rating, Foxtail, Giant ([5]; 500 g ai/ha) | Plant response rating, Kochia [6] | Kochia plant response rating [6] | Plant response rating, Ragweed [7] | Ragweed plant response rating [7] | Plant response rating, Blackgrass [8] | Blackgrass plant response rating [8] | Plant response rating, Corn [9] | Corn plant response rating [9] | Plant response rating, Foxtail, Giant [10] | Foxtail, Giant plant response rating [10] | Plant response rating, Kochia [11, 17] | further results
CSC(=O)N(c1cc(C2=NOC3(CCCC3)C2)c(C)cc1C)S(=O)(=O)C(F)(F)F [Compound 219] | 20 | 50 | 100 | 0 | 0 | 40 | 70 | 50 | 90 | 30 | 60 | 20 | 50 | 0 | 0 | 0 | 0 | 0 | 20 | 20 | Plant response rating, Barnyardgrass [2, 17]: 0; Plant response rating, Kochia ([11]; 500 g ai/ha): 40; Plant response rating, Ryegrass, Italian [12, 17]: 50; Plant response rating, Ryegrass, Italian ([12]; 500 g ai/ha): 60; Plant response rating, Wheat [13]: 0; Wheat plant response rating [13]: 0; Plant response rating, Barnyardgrass [14]: 0; Barnyardgrass plant response rating [14]: 70; Plant response rating, Pigweed [15, 17]: 40; Plant response rating, Pigweed ([15]; 500 g ai/ha): 60; Plant response rating, Galium [16]: 50; Galium plant response rating [16]: 70
CC(=O)N(c1cc(C2=NOC3(CCCC3)C2)c(C)cc1C)S(=O)(=O)C(F)(F)F [Compound 220] | 0 | 20 | 100 | 30 | 60 | 0 | 70 | 100 | 100 | 20 | 60 | 0 | 40 | 0 | 30 | 0 | 30 | 0 | 50 | 20 | Plant response rating, Barnyardgrass [2, 17]: 100; Plant response rating, Kochia ([11]; 500 g ai/ha): 70; Plant response rating, Ryegrass, Italian [12, 17]: 100; Plant response rating, Ryegrass, Italian ([12]; 500 g ai/ha): 100; Plant response rating, Wheat [13]: 20; Wheat plant response rating [13]: 60; Plant response rating, Barnyardgrass [14]: 20; Barnyardgrass plant response rating [14]: 70; Plant response rating, Pigweed [15, 17]: 70; Plant response rating, Pigweed ([15]; 500 g ai/ha): 100; Plant response rating, Galium [16]: 60; Galium plant response rating [16]: 80
Cc1cc(Cl)c(NS(=O)(=O)C(F)(F)F)cc1C1=NOC2(CCCCC2)C1 [Compound 221] | 0 | 60 | 100 | 90 | 90 | 20 | 80 | 100 | 100 | 60 | 70 | 70 | 90 | 10 | 30 | 10 | 40 | 0 | 90 | 70 | Plant response rating, Barnyardgrass [2, 17]: 100; Plant response rating, Kochia ([11]; 500 g ai/ha): 90; Plant response rating, Ryegrass, Italian [12, 17]: 100; Plant response rating, Ryegrass, Italian ([12]; 500 g ai/ha): 100; Plant response rating, Wheat [13]: 20; Wheat plant response rating [13]: 70; Plant response rating, Barnyardgrass [14]: 30; Barnyardgrass plant response rating [14]: 80; Plant response rating, Pigweed [15, 17]: 60; Plant response rating, Pigweed ([15]; 500 g ai/ha): 100; Plant response rating, Galium [16]: 80; Galium plant response rating [16]: 100
Cc1cc(Cl)c(N(S(=O)(=O)C(F)(F)F)S(=O)(=O)C(F)(F)F)cc1C1=NOC(C)(C)C1 [Compound 222] | 0 | 0 | 90 | 60 | 90 | 20 | 40 | 40 | 50 | 10 | 50 | 50 | 90 | 20 | 20 | 0 | 0 | 0 | 10 | 0 | Plant response rating, Kochia ([11]; 500 g ai/ha): 40; Plant response rating, Ryegrass, Italian [12, 17]: 30; Plant response rating, Ryegrass, Italian ([12]; 500 g ai/ha): 80; Plant response rating, Wheat [13]: 0; Wheat plant response rating [13]: 70; Plant response rating, Barnyardgrass [14]: 10; Barnyardgrass plant response rating [14]: 70; Plant response rating, Pigweed [15, 17]: 50; Plant response rating, Pigweed ([15]; 500 g ai/ha): 100; Plant response rating, Galium [16]: 90; Galium plant response rating [16]: 90
Cc1cc(C)c(C(=O)N2CCC3(CCCC3)CC2)cc1NS(=O)(=O)C(F)(F)F [Compound 223] | 0 | 0 | 50 | 0 | 50 | 40 | 30 | 60 | 100 | 0 | 0 | 0 | 20 | 20 | 0 | 0 | 0 | 0 | 0 | 0 | Plant response rating, Barnyardgrass [2, 17]: 30; Plant response rating, Kochia ([11]; 500 g ai/ha): 20; Plant response rating, Ryegrass, Italian [12, 17]: 30; Plant response rating, Ryegrass, Italian ([12]; 500 g ai/ha): 80; Plant response rating, Wheat [13]: 0; Wheat plant response rating [13]: 0; Plant response rating, Barnyardgrass [14]: 10; Barnyardgrass plant response rating [14]: 20; Plant response rating, Pigweed [15, 17]: 10; Plant response rating, Pigweed ([15]; 500 g ai/ha): 90; Plant response rating, Galium [16]: 40; Galium plant response rating [16]: 40
